Data: PMC4912613, “A broad analysis of resistance development in the malaria parasite” (Nature Communications, 2016)

Assays:
[1] = system: ProRS (prolyl t-RNA synthetase L482H, parent Dd2); assay: Cross-resistance EC50 assay, ProRS; format: cell-based; conditions: Plasmodium falciparum, SYBR green 72 hour assay, synchronized parasites, 384-well format
Source text: To evaluate potential overlapping activity against known antimalarial drug targets, we performed dose-response studies with each compound against our assembled set of drug-resistant lines and their corresponding parents, in an asexual blood stage proliferation assay (Table 1). Comparisons were made to the drug-sensitive strain 3D7 when a parent was unavailable (TM90C2A, W2 and Dd2). As laboratories conducted EC50 assays with different strains and protocols, all comparisons were made between assays from the same laboratory and under the same assay conditions. Compounds displaying >5-fold EC50 shifts relative to the parent or sensitive strain were flagged as having potentially non-novel targets. Average fold shifts per strain ranged from 0.82 to 2.34, with a median of 1.23 indicating there was not common resistance to any one resistant clone. No resistance patterns were observed when classifying the compounds based on chemical structure, but this was not surprising given the diversity of compounds chosen. On the other hand, given that these confirmed compounds were derived from larger unconfirmed hit lists to which some filtration criteria may have been applied (for example, elimination of obvious dihydrofolate reductase inhibitors[32]), some[10][11][12][13] pre-existing bias may exist in the set. […]
Alternatively, a SYBR Green-based proliferation approach was used for the 72-h assay, as previously described. Briefly, a culture of either synchronized or asynchronous parasitized RBCs (0.3% parasitemia and 4% haematocrit) in screening medium (identical to supplemented medium above except no serum was added) was exposed to serial drug dilutions. Plates were incubated at 37 °C and gassed with 93% N2, 4% CO2 and 3% O2 for 72 h. Following incubation, 10 × SYBR Green I (Invitrogen; supplied in 10,000 × concentration) in lysis buffer ([…], 5 mM EDTA, 0.16% Saponin wt per vol and 1.6% Triton X vol per vol) was added to the wells and the plates were incubated overnight at room temperature before plate reading. EC50 assays were repeated three times, taking the average EC50 value from each assay set, and removing any outliers using a single iteration of Grubbs' test, eliminating values with z-scores above the critical z-value (α=0.05). The raw EC50 values for synchronized parasites assayed in a 384-well format are listed in Supplementary Data 4. The raw EC50 values for asynchronous parasites assayed in a 96 or 1536-well format are listed in Supplementary Data 5.
EC50 values for each strain were compared with those of the corresponding parent strain to determine fold-shift changes and identify resistance. To minimize the cause variance between assays, all comparisons were conducted between strains assayed under identical conditions. A one-way ANOVA followed by a Dunnet's post-test was conducted in GraphPad Prism to identify significant changes between the parent and resistant strain.

P. falciparum = assay: Rate of killing (parasite viability) assay; format: cell-based, Plasmodium falciparum; conditions: profile compared with chloroquine, pyrimethamine, atovaquone; 48 h treatment
Description: To identify whether selection success could be predicted by compound speed of action, and to gain a greater insight into the potential mechanisms of action, assays were performed to test the killing rate (Supplementary Data 1)[33]. To quantify the killing rate, viability time-course profiles for each compound were compared with antimalarials known to have fast (chloroquine), moderate (pyrimethamine) or slow (atovaquone) rate of action. These rates were then compared with other compound characteristics, including cross-resistance profile, selection success, potency and structural characteristics to identify any possible trends. […] One compound's rate of killing, MMV666080, was unidentifiable due to compound availability. No correlation was seen between compound structure and speed of action. Additionally, there was no correlation found between killing rate and compound potency against 3D7, nor between potency and selection success (Supplementary Fig. 2).
Rate of killing was determined for each compound following a previously described methodology, which uses the invasion of fresh erythrocytes as surrogate of parasite viability. Briefly, parasites were treated with compounds for 48 h. Compound was washed out and fresh-labelled erythrocytes added to the treated parasites. Double stained erythrocytes (RBC label plus parasite DNA label) were quantified and per cent of survival determined.

HepG2 = assay: Hepatocyte toxicity; format: cell-based, human; conditions: for Hepatocyte Toxicity: HepG2; for EC50 fold shift compared to asexual stage: Hepatocyte Toxicity: hepatocyte toxicity / 3D7 EC50; for Liver Stage / Hepatocyte Toxicity: toxicity fold shift for the liver stage (hepatocyte toxicity vs liver stage EC50)
Source text: (§1) As drugs that eliminate multiple stages of the parasite lifecycle will be critical components in global efforts to eliminate malaria, we were interested in knowing whether the compounds in our study had additional activities against either the liver and/or transmission stages of the parasite lifecycle. To determine this, we first evaluated the compounds in additional phenotypic assays. The first assay was a P. berghei hepatocyte invasion and development assay, which predicts causal prophylactic activity. Hepatocyte toxicity was additionally tested to identify false-positive activity in the liver stage due to host-cell toxicity. Assays were executed in duplicate using a 12-point EC50 curve at starting concentrations of 5 μM or 50 μM (Supplementary Table 1).
(§2) Liver-stage activity was determined by pretreating hepatic human cells (HepG2) for 2 h with compound in 1,536-well plates infected with freshly dissected P. berghei sporozoites. After 48 h of incubation, the viability of P. berghei exoerythrocytic forms was measured by luminescence reaction light output using BrightGlo (Promega). Varying levels of compound concentration were used (5 μM or 50 μM) due to the stock concentration supplied.

[2] = system: P. berghei exoerythrocytic forms; assay: Liver-stage P. berghei hepatocyte invasion and development assay (luminescence, HepG2); format: cell-based, Plasmodium berghei; conditions: for EC50: Plasmodium berghei, HepG2, 48 h, P. berghei sporozoites, read-out: Liver Stage EC50; for EC50 fold shift compared to asexual stage: Liver Stage EC50: liver stage EC50 / 3D7 EC50
Source text: as §1, §2

Row | Compound | EC50 ([1]; DD2, ProRS strain) | Killing Rate (P. falciparum) | Hepatocyte Toxicity (HepG2) | EC50 fold shift compared to asexual stage: Hepatocyte Toxicity (HepG2) | Liver Stage / Hepatocyte Toxicity (HepG2) | EC50 [2] | EC50 fold shift compared to asexual stage: Liver Stage EC50 [2] | EC50 ([1]; strain ProRS (Dd2 parent))
1 | COc1ccc(NC(=O)N2CCCCN3[C@H](CN)[C@H](c4ccc(C#Cc5ccccc5)cc4)[C@@H]3C2)cc1 [BRD1095] | 17 nM | PYR/CQ (moderate) | > 50 µM | > 1250 | > 605 | 82.6 nM | 2.07 | 
2 | CCN(CC)CCn1c(=N)n(CC(O)c2ccc(Cl)c(Cl)c2)c2ccccc21.Cl (centres unmarked) [MMV000248] |  | CQ (fast) | 20.64 µM | 67.45 | 3.72 | 5550 nM | 18.14 | 360 nM
3 | CCOc1cc2c(cc1OCC)C(c1cc(Cl)ccc1O)NCC2 (centres unmarked) [MMV000478] |  | CQ (fast) | > 5 µM | > 5 |  | > 5000 nM | > 5 | 622 nM
4 | CCCOCc1cc(CN2CCN(c3cccc(Cl)c3)CC2)c(O)c2ncccc12 [MMV000787] |  | CQ (fast) | 2.43 µM |  | 4.05 | 600 nM |  | 484 nM
5 | CN1CCN(c2ccc(Nc3c4ccccc4nc4ccccc34)cc2)CC1 [MMV006172] |  | CQ (fast) | 4.554 µM |  | 2.21 | 2060 nM |  | 125 nM
6 | CCCN(CCC)CC(O)COc1ccccc1C(=O)Nc1ccccc1 (centres unmarked) [MMV006455] |  | CQ (fast) | > 5 µM | > 9.4 |  | > 5000 nM | > 9.4 | 897 nM
7 | COc1cc2cc(C(=O)Nc3ccccc3)c(N)nc2cc1OC [MMV006767] |  | PYR (moderate) | > 50 µM |  |  | > 50000 nM |  | 1730 nM
8 | Cc1cc(Nc2ccc(OCc3ccccc3)cc2)nc2cc(O)ccc12 [MMV007181] |  | PYR/CQ (moderate) | 7.952 µM | 22.98 | 1.66 | 4790 nM | 13.83 | 105 nM
9 | Brc1ccc(Nc2nc3ccccc3nc2Nc2ccc(Br)cc2)cc1 [MMV007224] |  | ATQ (slow) | 1.868 µM | 8.41 | 3.63 | 514 nM | 2.32 | 298 nM
10 | Cc1ccc(Cn2c(N3CCC(C(=O)NCc4cccs4)CC3)nc3ccccc32)cc1 [MMV007564] |  | PYR/CQ (moderate) | > 6.6 µM | > 57 | > 21 | 1510 nM | 2.60 | 416 nM
11 | Cc1c(C)n(Cc2ccc(F)cc2)c2ccc(C(=O)NCc3ccco3)cc12 [MMV008149] |  | ATQ (slow) | > 5 µM | > 6.5 | > 5.6 | 882 nM | 1.15 | 67 nM
12 | OC(CNC1CCCCC1)Cn1c2ccccc2c2ccccc21 (centres unmarked) [MMV009063] |  | CQ (fast) | > 5 µM | > 6.3 |  | > 5000 nM | > 6.3 | 144 nM
13 | CCN(CC)S(=O)(=O)c1ccc(-c2csc(Nc3ccc(C)c(C)c3)n2)cc1 [MMV009108] |  | ATQ (slow) | > 5 µM | > 5.3 | > 1 | 4790 nM | 5.15 | 373 nM
14 | COC(=O)c1ccc(C2C3=C(O)CC(c4ccc(F)cc4)CC3=Nc3ccccc3N2C(=O)c2ccccc2)cc1 (centres unmarked) [MMV011438] |  | ATQ (slow) | > 50 µM | > 116 | > 80 | 621 nM | 1.44 | 220 nM
15 | Nc1ccc(-c2nc3cc(Oc4ccc(Oc5ccc6[nH]c(-c7ccc(N)cc7)nc6c5)cc4)ccc3[nH]2)cc1 [MMV011895] |  | CQ (fast) | > 50 µM | > 300 |  | > 50000 nM | > 300 | 232 nM
16 | COCCNCC(O)Cn1c2ccc(Cl)cc2c2cc(Cl)ccc21 (centres unmarked) [MMV019017] |  | CQ (fast) | > 5 µM | > 10 |  | > 5000 nM | > 10 | 340 nM
17 | Cc1nc2ccc3ccc(CNc4ccc(C(=O)CC(CCC(=O)O)C(=O)O)cc4)cc3c2c(=O)[nH]1.Cl (centres unmarked) [MMV027634] |  | ATQ (slow) | 11.61 µM | 504.78 |  | > 50000 nM | > 2170 | 
18 | CN(C)CCCN(C)C(=O)C1Cc2cc(-c3ccccc3)ccc2N1S(=O)(=O)c1ccccc1 (centres unmarked) [MMV028895] |  | ATQ (slow) |  |  |  |  |  | 371 nM
19 | O=C(NC(c1ccccc1)c1ccc2cccnc2c1O)c1ccccc1 (centres unmarked) [MMV666080] |  |  | 1.309 µM | 1.55 | 2.82 | 464 nM | 0.55 | 571 nM
20 | c1cncc(-c2cc(N3CCC(CN4CCOCC4)CC3)nc(-c3ccncc3)n2)c1 [MMV668399] |  | PYR (moderate) | > 50 µM |  | > 7 | 7040 nM |  | 
21 | COc1ccc2c3c([nH]c2c1)[C@H](CO)N(C(C)=O)CC31CCN(C(=O)Nc2ccccc2F)CC1 [MMV673482] | 94 nM | PYR (moderate) |  |  |  |  |  | 
